Test results as given in ChEMBL document CHEMBL1125572, “Adenosine receptors: pharmacology, structure-activity relationships, and therapeutic potential” (J Med Chem, 1992).
Each block holds one compound with its values, some of them ahead of it.

How the values were obtained:
Adenosine receptor A1 [1] = biological target: T1, Adenosine receptor A1 (Rattus norvegicus, UniProt P25099)
T1 sequence (P25099 whole entry): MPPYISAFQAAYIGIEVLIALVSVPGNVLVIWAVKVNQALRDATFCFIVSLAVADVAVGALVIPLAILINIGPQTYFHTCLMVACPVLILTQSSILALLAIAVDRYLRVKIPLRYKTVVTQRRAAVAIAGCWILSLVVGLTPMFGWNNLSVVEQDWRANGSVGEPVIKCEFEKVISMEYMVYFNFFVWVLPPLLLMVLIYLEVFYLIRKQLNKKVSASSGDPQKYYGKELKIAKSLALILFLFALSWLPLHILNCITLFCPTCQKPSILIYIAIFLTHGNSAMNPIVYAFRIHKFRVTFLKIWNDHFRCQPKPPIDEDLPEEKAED

Adenosine receptor A1 [2] = biological target: T1, Adenosine receptor A1; assay: Binding affinity for Adenosine A1 receptor using [3H]- CHA or [3H]- PIA
Adenosine A2 receptor [3] = biological target: Adenosine A2 receptor (Rattus norvegicus, UniProt P29276+P30543); assay: Binding affinity for adenosine A2 receptor using [3H]- NECA; type: protein assay
[4] = biological target: Adenosine A2 receptor (Rattus norvegicus) (UniProt P29276+P30543); assay: Binding affinity for Adenosine A2 receptor using [3H]- NECA; type: protein assay
[5] = test system: Adenosine receptors; A1 & A2 (Rattus norvegicus); assay: Ratio of adenosine A2 to A1 receptor binding
Adenosine receptor A1 [6] = biological target: T2, Adenosine receptor A1 (Bos taurus, UniProt P28190); assay: Binding affinity for adenosine A1 receptor using [3H]- CHA or [3H]- PIA in bovine brain cortical membranes; type: cell membranes
T2 sequence (P28190 whole entry): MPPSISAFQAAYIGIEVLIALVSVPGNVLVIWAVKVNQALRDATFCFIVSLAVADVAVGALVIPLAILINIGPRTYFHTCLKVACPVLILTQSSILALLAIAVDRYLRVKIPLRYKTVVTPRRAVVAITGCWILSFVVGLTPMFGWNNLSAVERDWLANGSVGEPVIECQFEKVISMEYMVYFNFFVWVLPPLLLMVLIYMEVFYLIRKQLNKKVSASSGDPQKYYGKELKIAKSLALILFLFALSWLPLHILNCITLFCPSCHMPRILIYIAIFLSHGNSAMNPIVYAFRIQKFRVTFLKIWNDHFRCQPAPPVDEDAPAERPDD

Adenosine receptor A1 [7] = biological target: T1, Adenosine receptor A1; assay: Binding affinity for adenosine A1 receptor using [3H]- CHA or [3H]- PIA antagonism of adenylate cyclase inhibition in rat adipocytes; type: cell-based
Adenosine A2 receptor [8] = biological target: T3, Adenosine A2 receptor (Homo sapiens, UniProt P29275+P29274); assay: Binding affinity for adenosine A2 receptor using [3H]- NECA antagonism of adenylate cyclase activation in human platelets
Adenosine A2 receptor [9] = biological target: T3, Adenosine A2 receptor; assay: Binding affinity for adenosine A2 receptor using [3H]- NECA in bovine brain; conditions: Bos taurus; target entry is the homologue from another species
Adenosine receptor A1 [10] = biological target: T2, Adenosine receptor A1; assay: Binding affinity for adenosine A1 receptor using [3H]- CHA or [3H]- PIA in bovine brain
Adenosine A2 receptor [11] = biological target: T3, Adenosine A2 receptor; assay: Binding affinity for adenosine A2 receptor using [125I]PAPA-APEC in bovine striatum; type: tissue-based; conditions: Bos taurus, target entry is the homologue from another species

SMILES: CCCn1c(=O)c2[nH]c(C3CCC(=O)C3)nc2n(CCC)c1=O (stereo unspecified)
Ki (Adenosine receptor A1 [1]): 10.5 nM

SMILES: CCCCCCC#Cc1nc(N)c2ncn([C@@H]3O[C@H](CO)[C@@H](O)[C@H]3O)c2n1
Ki (Adenosine receptor A1 [1]): 211 nM

SMILES: Oc1cccc(C2=CSC3=Nc4ccccc4CN23)c1
Ki (Adenosine receptor A1 [1]): 3100 nM

SMILES: Nc1nc(OCCC2CCCCC2)nc2c1ncn2C1O[C@@H](CO)[C@H](O)[C@@H]1O (stereo partly specified)
Ki (Adenosine receptor A1 [1]): 1500 nM

SMILES: CCCCC#Cc1nc(N)c2ncn([C@@H]3O[C@H](CO)[C@@H](O)[C@H]3O)c2n1
Ki (Adenosine receptor A1 [1]): 147 nM

SMILES: Cc1c(C)n([C@H](C)Cc2ccccc2)c2nc(-c3ccccc3)nc(N)c12
Ki (Adenosine receptor A1 [1]): 4.7 nM

SMILES: OCCCNc1ncnc2c1ncn2C1O[C@H](CO)[C@@H](O)[C@H]1O (stereo partly specified)
Ki (Adenosine receptor A1 [2]): 7 nM
Ki [4]: 4920 nM
Ratio [5]: 700

SMILES: C#CCn1c(=O)c2c(ncn2C)n(C)c1=O
Ki (Adenosine receptor A1 [1]): 22000 nM

SMILES: FC(F)(F)c1nnc2c(NC3CCCC3)nc3ccc(Cl)cc3n12
Ki (Adenosine receptor A1 [1]): 28 nM

SMILES: CCCn1c(=O)c2nc([C@H]3CC[C@H](CNC(C)=O)CC3)[nH]c2n(CCC)c1=O
Ki (Adenosine receptor A1 [7]): 8 nM
Ki (Adenosine A2 receptor [8]): 20 nM

SMILES: C[C@H](Cc1ccc(O)c(I)c1)Nc1ncnc2c1ncn2[C@@H]1O[C@H](CO)[C@@H](O)[C@H]1O
Ki (Adenosine receptor A1 [2]): 0.94 nM

SMILES: OC[C@H]1O[C@@H](n2cnc3c(Nc4ccccc4)ncnc32)[C@H](O)[C@@H]1O
Ki [4]: 663 nM

SMILES: Nc1nc2ccc(Cl)cc2n2c(-c3ccccc3)nnc12
Ki (Adenosine receptor A1 [1]): 270 nM

SMILES: Nc1nc(NCCC2C=CCCC2)nc2c1ncn2C1O[C@H](CO)[C@@H](O)[C@H]1O (stereo partly specified)
Ki (Adenosine receptor A1 [1]): 2700 nM

SMILES: CCCn1c(=O)c2nc(C3CCCC3)[nH]c2n(CCc2ccc(N)c(I)c2)c1=O
Ki (Adenosine receptor A1 [1]): 0.23 nM

SMILES: Cn1cnc2c(NC3CC4CCC3C4)ncnc21 (stereo unspecified)
Ki (Adenosine A2 receptor [9]): 6100 nM
Ki (Adenosine receptor A1 [10]): 10 nM

SMILES: Nc1nc(-c2ccccc2)nc2c1cnn2-c1ccccc1
Ki (Adenosine receptor A1 [1]): 23 nM

SMILES: Cn1c(=O)c2c(nc(C3CCCCC3)n2C)n(C)c1=O
Ki (Adenosine A2 receptor [8]): 0.19 nM

SMILES: Nc1ccc(CNc2ncnc3c2ncn3C2O[C@H](CO)[C@@H](O)[C@H]2O)cc1I (stereo partly specified)
Ki (Adenosine receptor A1 [2]): 0.7 nM

Further lines, results first:

Ki (Adenosine receptor A1 [2]): 4.1 nM
SMILES: OC[C@H]1O[C@@H](n2cnc3c(NCCc4ccccc4)ncnc32)[C@H](O)[C@@H]1O

Ki (Adenosine receptor A1 [1]): 240 nM
Ki (Adenosine A2 receptor [3]): 5.7 nM
SMILES: CCNC(=O)[C@H]1O[C@@H](n2cnc3c(N)nc(NCCc4ccc(CCC(=O)NCCN)cc4)nc32)[C@H](O)[C@@H]1O

Ki (Adenosine receptor A1 [1]): 48 nM
SMILES: Cc1ccc(CCOc2nc(N)c3ncn(C4O[C@@H](CO)[C@H](O)[C@@H]4O)c3n2)cc1 (stereo partly specified)

Ki (Adenosine receptor A1 [2]): 7.1 nM
SMILES: O=C(Cc1ccc(NC(=O)Cc2ccc(Nc3ncnc4c3ncn4C3O[C@H](CO)[C@@H](O)[C@H]3O)cc2)cc1)NCC/N=C(/S)Nc1ccc2c(c1)C(=O)OC21c2ccc(O)cc2Oc2cc(O)ccc21 (stereo partly specified)

Ki (Adenosine receptor A1 [6]): 0.1 nM
SMILES: CCCn1c(=O)c2nc(-c3ccc(OCC(=O)NCCNC(=O)CCc4ccc(N)c(I)c4)cc3)[nH]c2n(CCC)c1=O

Ki (Adenosine receptor A1 [2]): 0.22 nM
Ki [4]: 8400 nM
Ratio [5]: 38000
SMILES: CCCCCCCCCCCCCCCCCC(=O)NCCNC(=O)Cc1ccc(NC(=O)Cc2ccc(Nc3ncnc4c3ncn4C3O[C@H](CO)[C@@H](O)[C@H]3O)cc2)cc1 (stereo partly specified)

Ki (Adenosine A2 receptor [3]): 1 nM
SMILES: CCNC(=O)[C@H]1OC(n2cnc3c(N)nc(NCCc4ccc(CCC(=O)NCCNC(=O)Cc5ccc(N)c(I)c5)cc4)nc32)[C@H](O)[C@@H]1O (stereo partly specified)

Ki (Adenosine receptor A1 [2]): 2 nM
SMILES: Nc1ccc(CCNc2ncnc3c2ncn3C2O[C@H](CO)[C@@H](O)[C@H]2O)cc1I (stereo partly specified)

Ki (Adenosine receptor A1 [1]): 280 nM
Ki (Adenosine A2 receptor [11]): 7.1 nM
SMILES: CCNC(=O)[C@H]1OC(n2cnc3c(N)nc(NCCc4ccc(CCC(=O)NCC/N=C(\S)Nc5ccc(N=C=S)cc5)cc4)nc32)[C@H](O)[C@@H]1O (stereo partly specified)
